Patent US9242006B2, “Composition of chlorin e6 stabilized within albumin for the photodynamic diagnosis and therapy of tumors” (APOCARE PHARMA GMBH, priority 2011, dated 2016)

Tests used:
[1] = 48 hours after administration; cited from earlier work
[2] = Storage stability of chlorin e6 in aqueous solutions with or without human serum albumin, measured by analytical HPLC; type: physicochemical; settings: for residual active ingredient content / residual active ingredient content (HPLC area) / residual active ingredient content compared with 5 wt. % HSA / residual content of chlorin e6 (HPLC area) / residual chlorin e6 (HPLC area): 30° C.; for residual active ingredient content / residual active ingredient content (HPLC area): 5 wt. % HSA; for residual active ingredient content: all three pH values (7.0, 7.5, 8.0); for residual active ingredient content compared with 5 wt. % HSA: 10 wt. % HSA, pH 7 and pH 7.5; for residual content of chlorin e6 (HPLC area): 20 wt. % HSA; for residual content of chlorin e6 (mean) / residual active ingredient content (mean) / residual active ingredient content (HPLC area, mean) / residual active ingredient content (bound) / residual chlorin e6 (HPLC area, mean): 5° C.; for residual content of chlorin e6 (mean): pH 8.0, 1.25 wt. % HSA; for residual active ingredient content (mean): pH 8.0, 2.5 wt. % HSA; for residual active ingredient content (HPLC area, mean) / residual active ingredient content (bound): pH 8.0, 5 wt. % HSA; for residual chlorin e6 (HPLC area, mean): pH 8.0, pure buffer
Experimental: In order to determine the stability of a composition comprising chlorin e6 and an albumin, three buffer solutions with pH values of 7.0, 7.5 and 8.0, each of which contained potassium dihydrogen phosphate (Merck) and disodium hydrogen phosphate (Merck) as buffer salts, were prepared and sterilised.
Starting from a 20 wt. % stock solution of human serum albumin (Biotest AG), dilute solutions comprising 10 wt. %, 5 wt. % and 0 wt. % human serum albumin were then prepared by means of the above buffer solutions. For the buffering of the 20 wt. % stock solution of human serum albumin, the buffer salts were added in the form of solids directly to 20 ml aliquots of the stock solution.
Thereafter, 2 ml of each of the various buffered solutions were introduced into brown glass bottles with crimped caps, and 40 μl of a 75 mM solution of chlorin e6 sodium salt (ORPEGEN Peptide Chemicals GmbH) in water were added thereto. In this manner there were prepared aqueous solutions of chlorin e6 sodium salt having a concentration of 0 wt. %, 1.25 wt. %, 2.5 wt. %, 5 wt. %, 10 wt. % and 20 wt. % human serum albumin which had pH values of 7.0, 7.5 and 8.0. For the purpose of reproducibility of the results, the individual solutions were each made up several times.
The solutions were re-packaged in a light-tight manner and incubated at 30° C. in a drying cabinet or at 5° C. in a refrigerator. […] Maisch GmbH); eluant: 80 mM triethylammonium phosphate buffer pH 2.25/acetonitrile). The extent of the decomposition of chlorin e6 was calculated in each case by comparing the areas under the peak belonging to chlorin e6 in the HPLC diagram before and after storage.

residual active ingredient content ([2]; 4 weeks): > 95%
residual active ingredient content (HPLC area) ([2]; 4 weeks, pH 7.0): 95.3 % area
residual active ingredient content (HPLC area) ([2]; 4 weeks, pH 7.5): 97.5 % area
residual active ingredient content (HPLC area) ([2]; 4 weeks, pH 8.0): 98.6 % area
residual active ingredient content compared with 5 wt. % HSA ([2]; 4 weeks): slightly higher
residual content of chlorin e6 (HPLC area) ([2]; 4 weeks, pH 7.0): 94.6 % area
residual content of chlorin e6 (HPLC area) ([2]; 4 weeks, pH 7.5): 96.4 % area
residual content of chlorin e6 (HPLC area) ([2]; 4 weeks, pH 8.0): 96.6 % area
residual chlorin e6 (HPLC area) ([2]; 4 weeks, pure buffer, no HSA, pH 7.0): 1.9 % area
residual chlorin e6 (HPLC area) ([2]; 4 weeks, pure buffer, no HSA, pH 7.5): 2.4 % area
residual chlorin e6 (HPLC area) ([2]; 4 weeks, pure buffer, no HSA, pH 8.0): 3.6 % area
residual content of chlorin e6 (mean) ([2]; 6 months): approximately 83.6%
residual active ingredient content (mean) ([2]; 6 months): approximately 96.6%
residual active ingredient content (HPLC area, mean) ([2]; 6 months): 97.9 % area
residual active ingredient content (bound) ([2]; 6 months): > 97%
residual chlorin e6 (HPLC area, mean) ([2]; 6 months, no HSA): 1.1 % area
residual content of chlorin e6 (mean) ([2]; 9 months): approximately 84.9%
residual active ingredient content (mean) ([2]; 9 months): approximately 93.8%
residual active ingredient content (HPLC area, mean) ([2]; 9 months): 96.4 % area
residual active ingredient content (bound) ([2]; 9 months): > 96%
residual chlorin e6 (HPLC area, mean) ([2]; 9 months, no HSA): 1.74 % area
residual active ingredient content ([2]; 10 weeks): > 94%
residual active ingredient content (HPLC area) ([2]; 10 weeks, pH 7.0): 94.1 % area
residual active ingredient content (HPLC area) ([2]; 10 weeks, pH 7.5): 96.0 % area
residual active ingredient content (HPLC area) ([2]; 10 weeks, pH 8.0): 97.8 % area
residual active ingredient content compared with 5 wt. % HSA ([2]; 10 weeks): slightly higher
residual content of chlorin e6 (HPLC area) ([2]; 10 weeks, pH 7.0): 91.9 % area
residual content of chlorin e6 (HPLC area) ([2]; 10 weeks, pH 7.5): 94.0 % area
residual content of chlorin e6 (HPLC area) ([2]; 10 weeks, pH 8.0): 95.9 % area
residual chlorin e6 (HPLC area) ([2]; 10 weeks, pure buffer, no HSA, pH 7.0): 0 % area
residual chlorin e6 (HPLC area) ([2]; 10 weeks, pure buffer, no HSA, pH 7.5): 0.52 % area
residual chlorin e6 (HPLC area) ([2]; 10 weeks, pure buffer, no HSA, pH 8.0): 0.89 % area
residual content of chlorin e6 (mean) ([2]; 12 months): approximately 69.5%
residual active ingredient content (mean) ([2]; 12 months): approximately 93.6%
residual active ingredient content (HPLC area, mean) ([2]; 12 months): 96.7 % area
residual active ingredient content (bound) ([2]; 12 months): > 96%
residual chlorin e6 (HPLC area, mean) ([2]; 12 months, no HSA): 0.26 % area
residual chlorin e6 (HPLC area) ([2]; 4 days, addition of Na caprylate or N-acetyl-DL-tryptophan, no human serum albumin): 68.8 % area
residual chlorin e6 (HPLC area) ([2]; 4 days, buffer solution pH 8, 5 wt. % human serum albumin): 97.8 % area
residual chlorin e6 (HPLC area) ([2]; 4 days, non-buffered solution adjusted to pH 7, 5% human serum albumin): 97.0 % area
residual chlorin e6 (HPLC area) ([2]; 4 days, pure buffer solution pH 8, no human serum albumin): 59.1 % area
storage life of aqueous solution of chlorin e6 with human serum albumin ([2]; storage at 2 to 8° C., extrapolated from data of FIGS. 1 to 6): at least 12 months
SMILES: C=Cc1c(C)c2cc3nc(c(CC(=O)O)c4[nH]c(cc5nc(cc1[nH]2)C(C)=C5CC)c(C)c4C(=O)O)[C@@H](CCC(=O)O)[C@@H]3C [chlorin e6]
active substance detectable in the human organism [1]: only traces
